Tests used:
Russian thistle = experiment: Test E Russian thistle; format: in vivo, Salsola kali; settings: Preemergence
downy brome = experiment: Test E downy brome; format: in vivo, Bromus tectorum; settings: Preemergence
lambsquarters = experiment: Test C postemergence lambsquarters; format: in vivo, Chenopodium album; settings: 0 to 100 scale, 0 no effect, 100 complete control
Method: (§1) Compounds evaluated in this test were formulated in a non-phytotoxic solvent mixture which included a surfactant and applied to plants that were grown for various periods of time before treatment (postemergence application). A mixture of sandy loam soil and greenhouse potting mix in a 60:40 ratio was used for the postemergence test.
(§2) Plantings of these crops and weed species were adjusted to produce plants of appropriate size for the postemergence test. All plant species were grown using normal greenhouse practices. Crop and weed species include arrowleaf sida (Sida rhombifolia), barnyardgrass (Echinochloa crus-galli), cocklebur (Xanthium strumarium), common ragweed (Ambrosia elatior), corn (Zea mays), cotton (Gossypium hirsutum), eastern black nightshade (Solanum ptycanthum), fall panicum (Panicum dichotomiflorum), field bindweed (Convolvulus arvensis), giant foxtail (Setaria faberii), hairy beggarticks (Bidens pilosa), ivyleaf morningglory (Ipomoea hederacea), johnsongrass (Sorghum halepense), ladysthumb smartweed (Polygonum persicaria), lambsquarters (Chenopodium album), large crabgrass (Digitaria sanguinalis), purple nutsedge (Cyperus rotundus), redroot pigweed (Amaranthus retroflexus), soybean (Glycine max), surinam grass (Brachiaria decumbens), velvetleaf (Abutilon theophrasti) and wild poinsettia (Euphorbia heterophylla).
(§3) Treated plants and untreated controls were maintained in a greenhouse for approximately 14, to 21 days, after which all treated plants were compared to untreated controls and visually evaluated. Plant response ratings, summarized in Table C, were based upon a 0 to 100 scale where 0 was no effect and 100 was complete control. A dash response (−) means no test result.

wild buckwheat = experiment: Test E wild buckwheat; format: in vivo, Polygonum convolvulus; settings: Postemergence
In short: (§4)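 Greenhouse-grown plants are treated (postemergence: 1- to 4-leaf stage, sandy loam/potting mix 60:40), then evaluated visually versus untreated controls some 21 to 28 days later.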

winter barley = experiment: Test E winter barley; format: in vivo, Hordeum vulgare; settings: Postemergence
Method: as §1, with “in the 1- to 4-leaf stage” for “grown for various periods of time before treatment”
(§5) Plantings of these crops and weed species were adjusted to produce plants of appropriate size for the postemergence test. All plant species were grown using normal greenhouse practices. Crop and weed species include annual bluegrass (Poa annua), blackgrass (Alopecurus myosuroides), black nightshade (Solanum nigra), chickweed (Stellaria media), common poppy (Papaver rhoeas), deadnettle (Lamium amplexicaule), downy brome (Bromus tectorum), field violet (Viola arvensis), galium (Galium aparine), green foxtail (Setaria viridis), Italian ryegrass (Lolium multiflorum), jointed goatgrass (Aegilops cylindrica), kochia (Kochia scoparia), lambsquarters (Chenopodium album), littleseed canarygrass (Phalaris minor), rape (Brassica napus), redroot pigweed (Amaranthus retroflexus), Russian thistle (Salsola kali), scentless chamomile (Matricaria inodora), spring barley (Hordeum vulgare), sugar beet (Beta vulgaris), sunflower (Helianthus annuus), ivyleaf speedwell (Veronica hederaefolia), spring wheat (Triticum aestivum), winter wheat (Triticum aestivum), wild buckwheat (Polygonum convolvulus), wild mustard (Sinapis arvensis), wild oat (Avena fatua), windgrass (Apera spica-venti) and winter barley (Hordeum vulgare).
(§6) Treated plants and untreated controls were maintained in a greenhouse for approximately 21 to 28 days, after which all treated plants were compared to untreated controls and visually evaluated. […] A dash response (-) means no test result.

kochia = experiment: Test E kochia; format: in vivo, Kochia scoparia; settings: Postemergence
Method: as §1, with “in the 1- to 4-leaf stage” for “grown for various periods of time before treatment”
as §5, §6

eastern black nightshade = experiment: Test C postemergence eastern black nightshade; format: in vivo, Solanum ptycanthum; settings: 0 to 100 scale, 0 no effect, 100 complete control
Method: as §1, §2, §3

deadnettle [1] = experiment: Test E deadnettle; format: in vivo, Lamium amplexicaule; settings: Preemergence
spring wheat = experiment: Test E spring wheat; format: in vivo, Triticum aestivum; settings: Postemergence
Method: as §1, with “in the 1- to 4-leaf stage” for “grown for various periods of time before treatment”
as §5, §6

deadnettle [2] = experiment: Test E deadnettle; format: in vivo, Lamium amplexicaule; settings: Postemergence
In short: as §4

velvetleaf = experiment: Test C postemergence velvetleaf; format: in vivo, Abutilon theophrasti; settings: 0 to 100 scale, 0 no effect, 100 complete control
Method: as §1, §2, §3

green foxtail = experiment: Test E green foxtail; format: in vivo, Setaria viridis; settings: Postemergence
In short: as §4

redroot pigweed = experiment: Test E redroot pigweed; format: in vivo, Amaranthus retroflexus; settings: Postemergence
In short: as §4

[3] = Rate 125 g/ha, 0 to 100 scale (0 no effect, 100 complete control)
[4] = Rate 500 g/ha, 0 to 100 scale where 0 is no effect and 100 is complete control
[5] = Rate 500 g/ha, 0 to 100 scale, 0 no effect, 100 complete control
[6] = Rate 250 g/ha, 0 to 100 scale where 0 is no effect and 100 is complete control
[7] = Rate 250 g/ha, 0 to 100 scale (0 no effect, 100 complete control)

Compound: CC(C)N(C(=O)n1oc(=O)n(C(C)C)c1=O)c1ccc(F)cc1 [Compound 131]
- Plant response rating, Russian thistle (Russian thistle; [3]): 10
- Russian thistle plant response rating (0 to 100 scale) (Russian thistle; Rate 250 g/ha): 0
- Plant response rating, Russian thistle (Russian thistle; [4]): 0
- Plant response rating, Downy brome (downy brome; [3]): 85
- Downy brome plant response rating (0 to 100 scale) (downy brome; Rate 250 g/ha): 80
- Plant response rating, Downy brome (downy brome; [4]): 100
- Plant response rating, Lambsquarters (lambsquarters; Rate 140 g/ha): 0
- Plant response rating, Lambsquarters (lambsquarters; Rate 280 g/ha): 0
- Plant response rating, Lambsquarters (lambsquarters; Rate 1120 g/ha): 0
- Plant response rating, Wild buckwheat (wild buckwheat; Rate 62 g/ha, 0 to 100 scale): 50
- Plant response rating, Wild buckwheat (wild buckwheat; Rate 125 g/ha, 0 to 100 scale): 0
- Plant response rating, Wild buckwheat (wild buckwheat; [5]): 0
- Wild buckwheat plant response rating (wild buckwheat; [6]): 0
- Plant response rating, Barley (winter) (winter barley; Rate 62 g/ha, 0 to 100 scale): 5
- Plant response rating, Barley (winter) (winter barley; Rate 125 g/ha, 0 to 100 scale): 0
- Plant response rating, Barley (winter) (winter barley; [5]): 20
- Barley (winter) plant response rating (winter barley; [6]): 0
- Plant response rating, Kochia (kochia; Rate 62 g/ha, 0 to 100 scale): 45
- Plant response rating, Kochia (kochia; Rate 125 g/ha, 0 to 100 scale): 0
- Plant response rating, Kochia (kochia; [5]): 0
- Kochia plant response rating (kochia; [6]): 0
- Plant response rating E. blacknightsh (eastern black nightshade; Rate 140 g/ha): 0
- Plant response rating E. blacknightsh (eastern black nightshade; Rate 280 g/ha): 10
- Plant response rating E. blacknightsh (eastern black nightshade; Rate 560 g/ha): 50
- Plant response rating E. blacknightsh (eastern black nightshade; Rate 1120 g/ha): 80
- Plant response rating, Deadnettle (deadnettle [1]; [3]): 30
- Deadnettle plant response rating (0 to 100 scale) (deadnettle [1]; Rate 250 g/ha): 60
- Plant response rating, Deadnettle (deadnettle [1]; [4]): 100
- Plant response rating, Spring Wheat (spring wheat; Rate 62 g/ha, 0 to 100 scale): 5
- Plant response rating, Spring Wheat (spring wheat; Rate 125 g/ha, 0 to 100 scale): 0
- Plant response rating, Spring Wheat (spring wheat; [5]): 40
- Spring Wheat plant response rating (spring wheat; [6]): 0
- Plant response rating, Deadnettle (deadnettle [2]; Rate 62 g/ha, 0 to 100 scale): 30
- Plant response rating, Deadnettle (deadnettle [2]; Rate 125 g/ha, 0 to 100 scale): 30
- Plant response rating, Deadnettle (deadnettle [2]; [5]): 50
- Deadnettle plant response rating (deadnettle [2]; [6]): 30
- Plant response rating, Velvetleaf (velvetleaf; Rate 140 g/ha): 0
- Plant response rating, Velvetleaf (velvetleaf; Rate 280 g/ha): 0
- Plant response rating, Velvetleaf (velvetleaf; Rate 560 g/ha): 10
- Plant response rating, Velvetleaf (velvetleaf; Rate 1120 g/ha): 70
- Plant response rating, Green foxtail (green foxtail; Rate 62 g/ha, 0 to 100 scale): 55
- Plant response rating, Green foxtail (green foxtail; Rate 125 g/ha, 0 to 100 scale): 70
- Plant response rating, Green foxtail (green foxtail; [5]): 75
- Green foxtail plant response rating (green foxtail; [6]): 50
- Plant response rating, Redroot pigweed (redroot pigweed; Rate 62 g/ha, 0 to 100 scale): 5
- Plant response rating, Redroot pigweed (redroot pigweed; Rate 125 g/ha, 0 to 100 scale): 0
- Plant response rating, Redroot pigweed (redroot pigweed; [5]): 0
- Redroot pigweed plant response rating (redroot pigweed; [6]): 0

Compound: CCn1c(=O)on(C(=O)N(c2ccccc2)C(C)C)c1=O [Compound 117]
- Plant response rating, Lambsquarters (lambsquarters; Rate 140 g/ha): 0
- Plant response rating, Lambsquarters (lambsquarters; Rate 280 g/ha): 0
- Plant response rating, Lambsquarters (lambsquarters; Rate 560 g/ha): 0
- Plant response rating, Lambsquarters (lambsquarters; Rate 1120 g/ha): 0
- Plant response rating E. blacknightsh (eastern black nightshade; Rate 140 g/ha): 0
- Plant response rating E. blacknightsh (eastern black nightshade; Rate 280 g/ha): 0
- Plant response rating E. blacknightsh (eastern black nightshade; Rate 560 g/ha): 70
- Plant response rating E. blacknightsh (eastern black nightshade; Rate 1120 g/ha): 80
- Plant response rating, Velvetleaf (velvetleaf; Rate 140 g/ha): 0
- Plant response rating, Velvetleaf (velvetleaf; Rate 560 g/ha): 20
- Plant response rating, Velvetleaf (velvetleaf; Rate 1120 g/ha): 60

Compound: CC(C)N(C(=O)n1oc(=O)n(C(C)C)c1=O)c1ccc(Cl)cc1 [Compound 114]
- Plant response rating, Russian thistle (Russian thistle; [3]): 0
- Plant response rating, Russian thistle (Russian thistle; Rate 250 g/ha, 0 to 100 scale): 0
- Plant response rating, Russian thistle (Russian thistle; [4]): 0
- Plant response rating, Downy brome (downy brome; [3]): 10
- Plant response rating, Downy brome (downy brome; Rate 250 g/ha, 0 to 100 scale): 60
- Plant response rating, Downy brome (downy brome; [4]): 50
- Plant response rating, Wild buckwheat (wild buckwheat; Rate 125 g/ha, 0 to 100 scale): 20
- Plant response rating, Wild buckwheat (wild buckwheat; [7]): 30
- Plant response rating, Wild buckwheat (wild buckwheat; [5]): 30
- Plant response rating, Barley (winter) (winter barley; Rate 125 g/ha, 0 to 100 scale): 5
- Plant response rating, Barley (winter) (winter barley; [7]): 10
- Plant response rating, Barley (winter) (winter barley; [5]): 20
- Plant response rating, Kochia (kochia; Rate 125 g/ha, 0 to 100 scale): 20
- Plant response rating, Kochia (kochia; [7]): 30
- Plant response rating, Kochia (kochia; [5]): 30
- Plant response rating, Deadnettle (deadnettle [1]; [3]): 20
- Plant response rating, Deadnettle (deadnettle [1]; Rate 250 g/ha, 0 to 100 scale): 20
- Plant response rating, Deadnettle (deadnettle [1]; [4]): 20
- Plant response rating, Spring Wheat (spring wheat; Rate 125 g/ha, 0 to 100 scale): 10
- Plant response rating, Spring Wheat (spring wheat; [7]): 20
- Plant response rating, Spring Wheat (spring wheat; [5]): 30
- Plant response rating, Deadnettle (deadnettle [2]; Rate 125 g/ha, 0 to 100 scale): 20
- Plant response rating, Deadnettle (deadnettle [2]; [7]): 10
- Plant response rating, Deadnettle (deadnettle [2]; [5]): 70
- Plant response rating, Green foxtail (green foxtail; Rate 125 g/ha, 0 to 100 scale): 20
- Plant response rating, Green foxtail (green foxtail; [7]): 50
- Plant response rating, Green foxtail (green foxtail; [5]): 90
- Plant response rating, Redroot pigweed (redroot pigweed; Rate 125 g/ha, 0 to 100 scale): 15
- Plant response rating, Redroot pigweed (redroot pigweed; [7]): 10
- Plant response rating, Redroot pigweed (redroot pigweed; [5]): 20
